Measurements published in US5445832A, “Process for the preparation of microspheres made of a biodegradable polymeric material” (priority 1991, dated 1995).

Assay: Solubility of the peptide pamoate in water
Format: physicochemical
Details: in H2O at 40° C.
Method: (pyro)Glu-His-Trp-Ser-Tyr-D-Trp-Leu-Arg-Pro-Gly-NH2 were converted into the corresponding pamoate, using conventional techniques. After comminution, this salt appears as formed of microparticles of an amorphous structure with an average particle size of approximately 10 microns. Solubility: lesser than 0.025 mg/ml in H2 O at 40° C.

Question: Which solubility does the source give for `CC(C)C[C@H](NC(=O)[C@@H](Cc1c[nH]c2ccccc12)NC(=O)[C@H](Cc1ccc(O)cc1)NC(=O)[C@H](CO)NC(=O)[C@H](Cc1c[nH]c2ccccc12)NC(=O)[C@H](Cc1c[nH]cn1)NC(=O)[C@@H]1CCC(=O)N1)C(=O)N[C@@H](CCCNC(=N)N)C(=O)N1CCC[C@H]1C(=O)NCC(N)=O` [pamoate of D-Trp6-LHRH, (pyro)Glu-His-Trp-Ser-Tyr-D-Trp-Leu-Arg-Pro-Gly-NH2] here?
Answer: The solubility was less than 25 µg/mL.
